Test results taken from ChEMBL document CHEMBL1667756, “Design, synthesis and antibacterial activity of 3-methylenepyrrolidine formyl hydroxyamino derivatives as novel peptide deformylase inhibitors” (2011).
≈ marks a conversion by molar mass, not a printed value.

Columns and labels:
Format in all cases: functional
Staphylococcus aureus [1] = assay: Antibacterial activity against Staphylococcus aureus ATCC 25923 by broth micro dilution technique
Staphylococcus aureus [2] = assay: Antibacterial activity against methicillin-susceptible Staphylococcus aureus ATCC 29213 by broth micro dilution technique
Staphylococcus aureus [3] = assay: Antibacterial activity against methicillin-resistant Staphylococcus aureus ATCC 43300 by broth micro dilution technique
[4] = system: Staphylococcus epidermidis; assay: Antibacterial activity against methicillin-resistant Staphylococcus epidermidis ATCC 12228 by broth micro dilution technique
Staphylococcus aureus [5] = assay: Antibacterial activity against methicillin-susceptible Staphylococcus aureus by agar dilution method
Staphylococcus aureus [6] = assay: Antibacterial activity against methicillin-resistant Staphylococcus aureus by agar dilution method
[7] = system: Staphylococcus epidermidis; assay: Antibacterial activity against methicillin-susceptible Staphylococcus epidermidis by agar dilution method
[8] = system: Staphylococcus epidermidis; assay: Antibacterial activity against methicillin-resistant Staphylococcus epidermidis by agar dilution method
Streptococcus pneumoniae [9] = assay: Antibacterial activity against penicillin-susceptible Streptococcus pneumoniae by agar dilution method
Haemophilus influenzae [10] = assay: Antibacterial activity against Haemophilus influenzae by agar dilution method
Staphylococcus aureus [11] = assay: Antibacterial activity against Staphylococcus aureus OXFORD by broth micro dilution technique
Staphylococcus aureus [12] = assay: Antibacterial activity against Staphylococcus aureus WCUH29 by broth micro dilution technique
Enterococcus faecalis = assay: Antibacterial activity against Enterococcus faecalis by broth micro dilution technique
Enterococcus faecium = assay: Antibacterial activity against Enterococcus faecium X7501 by broth micro dilution technique
Haemophilus influenzae [13] = assay: Antibacterial activity against Haemophilus influenzae Q1 by broth micro dilution technique
Haemophilus influenzae [14] = assay: Antibacterial activity against Haemophilus influenzae H128 by broth micro dilution technique
Haemophilus influenzae [15] = assay: Antibacterial activity against AcrA deficient Haemophilus influenzae H128 by broth micro dilution technique
Moraxella catarrhalis = assay: Antibacterial activity against Moraxella catarrhalis 1502 by broth micro dilution technique
Streptococcus pneumoniae [16] = assay: Antibacterial activity against Streptococcus pneumoniae 1629 by broth micro dilution technique
Streptococcus pneumoniae [17] = assay: Antibacterial activity against Streptococcus pneumoniae N1387 by broth micro dilution technique
Streptococcus pneumoniae [18] = assay: Antibacterial activity against Streptococcus pneumoniae ERY2 by broth micro dilution technique
Escherichia coli = assay: Antibacterial activity against Escherichia coli by broth micro dilution technique
Streptococcus pyogenes [19] = assay: Antibacterial activity against Streptococcus pyogenes 1307006P by broth micro dilution technique
Streptococcus pyogenes [20] = assay: Antibacterial activity against Streptococcus pyogenes 1308007P by broth micro dilution technique
Streptococcus pneumoniae [21] = assay: Antibacterial activity against penicillin-resistant Streptococcus pneumoniae by agar dilution method

SMILES: O=C(O)c1cn(C2CC2)c2cc(N3CCNCC3)c(F)cc2c1=O [CIPROFLOXACIN]
- MIC (Staphylococcus aureus [1]): 0.5 µg/mL (≈ 1.51 µM)
- MIC (Staphylococcus aureus [2]): 0.5 µg/mL (≈ 1.51 µM)
- MIC (Staphylococcus aureus [3]): 1 µg/mL (≈ 3.02 µM)
- MIC [4]: 0.25 µg/mL (≈ 0.754 µM)
- MIC (Staphylococcus aureus [5]): 1 µg/mL (≈ 3.02 µM)
- MIC (Staphylococcus aureus [6]): 1 µg/mL (≈ 3.02 µM)
- MIC [7]: 0.25 µg/mL (≈ 0.754 µM)
- MIC [8]: 1 µg/mL (≈ 3.02 µM)
- MIC (Streptococcus pneumoniae [9]): 2 µg/mL (≈ 6.04 µM)
- MIC (Haemophilus influenzae [10]): 0.125 µg/mL (≈ 0.377 µM)

SMILES: C=C1C[C@@H](C(=O)Nc2ccc(F)c[n+]2[O-])N(C(=O)[C@H](CCCC)CN(O)C=O)C1
- MIC (Staphylococcus aureus [1]): 2 µg/mL (≈ 4.9 µM)
- MIC (Staphylococcus aureus [2]): 4 µg/mL (≈ 9.79 µM)
- MIC (Staphylococcus aureus [3]): 1 µg/mL (≈ 2.45 µM)
- MIC [4]: 2 µg/mL (≈ 4.9 µM)

SMILES: CC1(C)S[C@@H]2[C@H](NC(=O)[C@H](N)c3ccc(O)cc3)C(=O)N2[C@H]1C(=O)O [AMOXICILLIN]
- MIC (Staphylococcus aureus [11]): 0.125 µg/mL (≈ 0.342 µM)
- MIC (Staphylococcus aureus [12]): 64 µg/mL (≈ 175 µM)
- MIC (Enterococcus faecalis): 0.5 µg/mL (≈ 1.37 µM)
- MIC (Enterococcus faecium): 16 µg/mL (≈ 43.8 µM)
- MIC (Haemophilus influenzae [13]): 0.25 µg/mL (≈ 0.684 µM)
- MIC (Haemophilus influenzae [14]): 32 µg/mL (≈ 87.6 µM)
- MIC (Haemophilus influenzae [15]): 64 µg/mL (≈ 175 µM)
- MIC (Moraxella catarrhalis): ≤ 0.06 µg/mL
- MIC (Streptococcus pneumoniae [16]): ≤ 0.06 µg/mL
- MIC (Streptococcus pneumoniae [17]): 2 µg/mL (≈ 5.47 µM)
- MIC (Streptococcus pneumoniae [18]): ≤ 0.06 µg/mL
- MIC (Escherichia coli): 1 µg/mL (≈ 2.74 µM)
- MIC (Streptococcus pyogenes [19]): ≤ 0.06 µg/mL
- MIC (Streptococcus pyogenes [20]): ≤ 0.06 µg/mL

SMILES: CN[C@H](CC(C)C)C(=O)N[C@H]1C(=O)N[C@@H](CC(N)=O)C(=O)N[C@H]2C(=O)N[C@H]3C(=O)N[C@H](C(=O)N[C@H](C(=O)O)c4cc(O)cc(O)c4-c4cc3ccc4O)[C@H](O)c3ccc(c(Cl)c3)Oc3cc2cc(c3O[C@@H]2O[C@H](CO)[C@@H](O)[C@H](O)[C@H]2O[C@H]2C[C@](C)(N)[C@H](O)[C@H](C)O2)Oc2ccc(cc2Cl)[C@H]1O [VANCOMYCIN]
- MIC (Streptococcus pneumoniae [9]): 1 µg/mL (≈ 0.69 µM)
- MIC (Streptococcus pneumoniae [21]): 1 µg/mL (≈ 0.69 µM)

SMILES: C=C1C[C@@H](C(=O)Nc2ccccc2)N(C(=O)[C@H](CCCC)CN(O)C=O)C1
- MIC (Staphylococcus aureus [1]): 2 µg/mL (≈ 5.36 µM)
- MIC (Staphylococcus aureus [2]): 8 µg/mL (≈ 21.4 µM)
- MIC (Staphylococcus aureus [3]): 1 µg/mL (≈ 2.68 µM)
- MIC [4]: 2 µg/mL (≈ 5.36 µM)

SMILES: C=C1C[C@@H](C(=O)Nc2ncc(C)s2)N(C(=O)[C@H](CC2CCCC2)CN(O)C=O)C1
- MIC (Staphylococcus aureus [1]): 0.0625 µg/mL (≈ 0.149 µM)
- MIC (Staphylococcus aureus [2]): 0.5 µg/mL (≈ 1.19 µM)
- MIC (Staphylococcus aureus [3]): 0.0625 µg/mL (≈ 0.149 µM)
- MIC [4]: 0.125 µg/mL (≈ 0.297 µM)
- MIC (Staphylococcus aureus [5]): 1 µg/mL (≈ 2.38 µM)
- MIC (Staphylococcus aureus [6]): 0.0625 µg/mL (≈ 0.149 µM)
- MIC [7]: 1 µg/mL (≈ 2.38 µM)
- MIC [8]: 0.5 µg/mL (≈ 1.19 µM)
- MIC (Streptococcus pneumoniae [9]): 0.25 µg/mL (≈ 0.594 µM)
- MIC (Streptococcus pneumoniae [21]): 0.25 µg/mL (≈ 0.594 µM)
- MIC (Haemophilus influenzae [10]): 1 µg/mL (≈ 2.38 µM)

SMILES: CCCC[C@H](CN(O)C=O)C(=O)N1CCC[C@H]1C(=O)Nc1ccc(F)c[n+]1[O-]
- MIC (Staphylococcus aureus [1]): 0.5 µg/mL (≈ 1.26 µM)
- MIC (Staphylococcus aureus [2]): 2 µg/mL (≈ 5.05 µM)
- MIC (Staphylococcus aureus [3]): 0.5 µg/mL (≈ 1.26 µM)
- MIC [4]: 1 µg/mL (≈ 2.52 µM)
- MIC (Staphylococcus aureus [5]): 0.5 µg/mL (≈ 1.26 µM)
- MIC (Staphylococcus aureus [6]): 0.125 µg/mL (≈ 0.315 µM)
- MIC [7]: 0.5 µg/mL (≈ 1.26 µM)
- MIC [8]: 0.125 µg/mL (≈ 0.315 µM)
- MIC (Streptococcus pneumoniae [9]): 0.125 µg/mL (≈ 0.315 µM)
- MIC (Streptococcus pneumoniae [21]): 0.5 µg/mL (≈ 1.26 µM)
- MIC (Haemophilus influenzae [10]): 2 µg/mL (≈ 5.05 µM)

SMILES: C=C1C[C@@H](C(=O)N2CCOCC2)N(C(=O)[C@H](CCCC)CN(O)C=O)C1
- MIC (Staphylococcus aureus [1]): 8 µg/mL (≈ 21.8 µM)
- MIC (Staphylococcus aureus [2]): > 64 µg/mL
- MIC (Staphylococcus aureus [3]): 8 µg/mL (≈ 21.8 µM)
- MIC [4]: 16 µg/mL (≈ 43.5 µM)

SMILES: C=C1C[C@@H](C(=O)N2CCOCC2)N(C(=O)[C@H](CC2CCCC2)CN(O)C=O)C1
- MIC (Staphylococcus aureus [1]): 4 µg/mL (≈ 10.2 µM)
- MIC (Staphylococcus aureus [2]): 8 µg/mL (≈ 20.3 µM)
- MIC (Staphylococcus aureus [3]): 2 µg/mL (≈ 5.08 µM)
- MIC [4]: 4 µg/mL (≈ 10.2 µM)

SMILES: C=C1C[C@@H](C(=O)NC2CC2)N(C(=O)[C@H](CC2CCCC2)CN(O)C=O)C1
- MIC (Staphylococcus aureus [1]): 4 µg/mL (≈ 11 µM)
- MIC (Staphylococcus aureus [2]): 8 µg/mL (≈ 22 µM)
- MIC (Staphylococcus aureus [3]): 1 µg/mL (≈ 2.75 µM)
- MIC [4]: 4 µg/mL (≈ 11 µM)
- MIC (Staphylococcus aureus [5]): 2 µg/mL (≈ 5.5 µM)
- MIC (Staphylococcus aureus [6]): 0.5 µg/mL (≈ 1.38 µM)
- MIC [7]: 1 µg/mL (≈ 2.75 µM)
- MIC [8]: 4 µg/mL (≈ 11 µM)
- MIC (Streptococcus pneumoniae [9]): 1 µg/mL (≈ 2.75 µM)
- MIC (Streptococcus pneumoniae [21]): 1 µg/mL (≈ 2.75 µM)
- MIC (Haemophilus influenzae [10]): 4 µg/mL (≈ 11 µM)
